According to patent US20130317037A1, “METHOD OF ADMINISTRATION AND TREATMENT” (GlaxoSmithKline Intellectual Property Development Limited, priority 2010, published 2013):
Read-outs that look alike come from different tables or passages of the source.

Columns and labels:
[1] = test system: HCC70; assay: Panel A proliferation assay (CellTiter-Glo); HER2 Loss 1 copy, KRAS WT, PIK3CA WT; assay type: cell-based, human; conditions: for IC50: Homo sapiens
Description: (§1) A total of 15 breast cancer cell lines were used in this study. These cells were cultured in RPMI-1640 and supplemented with 5% or 10% fetal bovine serum, 2 mM GlutaMAX™ and 1 mM sodium pyruvate, or in growth medium recommended by the suppliers [American Type Culture Collection, Manassas, Va., USA; Developmental Therapeutics Program, National Cancer Institute, Bethesda, Md., USA; German Collection of Microorganisms and Cell Cultures (DSMZ), Braunschweig, Germany; European Collection of Cell Cultures (ECACC), Porton Down, UK]. Cells of each line were seeded into a 384-well microtiter plate at two cell densities. Low density ranges were 300-1800 cells/well, and a high density was 600 to 3600 cells/well). The plating density was determined by the rate of proliferation of the cell line in the absence of any inhibitor and varied amongst cell lines. High plating densities were double that of low density. Each cell density was plated in triplicate. In total there were 30 wells to be treated with increasing concentrations of Compound B for each cell line at each density. In addition, there were 24 wells of dimethyl sulfoxide (DMSO)-treated controls at each density. After seeding, the cells were incubated at 37° C. in 5% CO2 for 24 hours. Subsequently, Compound B was added to each cell line with 10 concentrations. The dosing solution of Compound B was first prepared in DMSO at a master stock concentration of 10 mM. […] were then made of the stock solution to give a range of working stock concentrations; 10.00 mM, 3.164 mM, 1.001 mM, 316.9 μM, 100.3 μM, 31.74 μM, 10.04 μM, 3.178 μM, 1.006 μM and 318.3 nM. The working stock concentrations of Compound B were then dispensed into the seeded cancer cell lines using a Biomek FX liquid handler to give final treatment concentrations of 0.1% of the stock concentration. A similar volume of DMSO without Compound B was dispensed into the 24 control wells of each seeding density at a concentration of 0.1%. Also, a zero-time plate prepared with a similar cell seeding was read for each cell line at each seeding density immediately after the addition of the DMSO control. After a 72 h incubation, an equal volume of the CellTiter-Glo (CellTiter-Glo Luminescent Cell Viability Assay, Promega, Madison, Wis.) to that of the cell culture medium was added into each well of the plate. After the contents were mixed to induce cell lysis and stabilization, cell luminescence was recorded using a SpectraMax M5^e (Molecular Devices, Sunnyvale, Calif., USA)
(§2) The luminescence of Compound B treated cells was compared relative to the average of the 24 DMSO-treated control wells at each cell density for every concentration of Compound B for all triplicate wells. The percent intensity values were used in model 205 of XLfit in Microsoft Excel to calculate gIC50s for the low and high seeding density (a 4 parameter logistical fit). Specifically, the midpoint of the growth window (the gIC50) falls half way between the number of cells at the time of compound addition (T=0) and the growth of control cells treated with DMSO. The gIC50 value serves as a metric for measuring the inhibition of proliferation in cancer cells. […] Finally, where data quality permits, the Ymin values (defined as the maximum growth inhibition relative to the cell density at Time-zero) were calculated as a measure of cytotoxicity where data were of reasonable quality.

[2] = test system: T-47D; assay: Panel A proliferation assay (CellTiter-Glo); HER2 Gain <5, KRAS WT, PIK3CA p.H1047R; assay type: cell-based, human; conditions: for IC50: Homo sapiens, T47D
Description: as §1, §2

[3] = test system: panel of 51 human breast cell lines; assay: Breast Cell Line Panel B proliferation assay, panel summary; assay type: cell-based; conditions: for IC50: 51 human breast cell lines
Description: From the stock concentration, 8 serial dilutions (1:5) were made with DMSO.
Generally, about 5 μl was added to the 100 μl of cell culture during the treatment, and each dose was replicated in three wells.
Day −1: Plate cells in 100 μl volume in 96 well plate. • Note: Cell number seeded adjusted for growth characteristics, so that at time of assay for proliferation following three-day drug treatment, the control wells should still be in log-growth phase (sub-confluent). Day 0: Drug added to plate for treatment. • A time 0 plate was processed for the proliferation assay to establish a baseline reading at time when drug was added.
LBNL are following the protocols set up by the NCI/NIH DTP Human Tumor Cell Line Screen Process (http://dtp.nci.nih.gov/branches/btb/ivclsp.html) and summarized below.
[(Ti−Tz)/(C−Tz)]×100 for concentrations for which Ti>/=Tz
[(Ti−Tz)/Tz]×100 for concentrations for which Ti<Tz. • C: control growth (vehicle control growth) • Tz: reading at time 0 • Ti: test growth in the presence of drug at the nine concentration levels gIC50: Growth inhibition of 50% is calculated from
[(Ti−Tz)/(C−Tz)]×100=50, • which is the drug concentration resulting in a 50% reduction in the net growth in control cells during the drug incubation. TGI: Total growth inhibition is calculated from
Ti=Tz. • The drug concentration resulting in total growth inhibition (down to the ‘time 0’ baseline). LC50: Net loss of cell growth at 50% is calculated from
[(Ti−Tz)/Tz]×100=−50. • The concentration of drug resulting in a 50% reduction in the cell number at the end of the drug treatment as compared to that at the beginning (time 0) indicating a net loss of cells following treatment.
Values are calculated for each of these three parameters if the level of activity is reached; however, if the effect is not reached or is exceeded, the value for that parameter is expressed as greater or less than the maximum or minimum concentration tested.

Compound: COc1ncc(-c2ccc3nccc(-c4ccnnc4)c3c2)cc1NS(=O)(=O)c1ccc(F)cc1F [Compound B, 2,4-difluoro-N-{2-(methyloxy)-5-[4-(4-pyridazinyl)-6-quinolinyl]-3-pyridinyl}benzenesulfonamide]
- High Density Y-Min ([1]; HCC70, high density, % of cells at T = 0): 8.7%
- Low Density Y-Min ([1]; HCC70, low density, % of cells at T = 0): 9.6%
- IC50 ([1]; HCC70, high seeding density, 72 h, read-out: High Density gIC50): 4.8 nM
- IC50 ([1]; HCC70, low seeding density, 72 h, read-out: Low Density gIC50): 4.6 nM
- IC50 ([1]; HCC70, mean of low and high density, read-out: Mean gIC50): 4.7 nM
- IC50 ([2]; high seeding density, 72 h, read-out: High Density gIC50): 1.8 nM
- IC50 ([2]; low seeding density, 72 h, read-out: Low Density gIC50): 1.1 nM
- IC50 ([2]; mean of low and high density, read-out: Mean gIC50): 1.45 nM
- High Density Y-Min ([2]; high density, % of cells at T = 0): 103.6%
- Low Density Y-Min ([2]; low density, % of cells at T = 0): 104.6%
- IC50 ([3]; read-out: average gIC50): 28.9 nM
- IC50 ([3]; read-out: gIC50s across the panel (range)): 1.1 to 398 nM
- IC50 ([3]; read-out: overall median gIC50): 10.4 nM
- tumor cell lines with gIC50>30 nM ([3]; number of lines / lines tested): 16/51
- tumor cell lines with gIC50s<3 nM ([3]; number of lines / lines tested): 7/51
